Measured values published in US11136313B2, “Compounds, compositions, and methods for modulating CFTR” (Proteostasis Therapeutics, Inc., priority 2015, dated 2021).

What follows are compounds tested against T1, ΔF508-CFTR (Homo sapiens, UniProt P13569, DEL508-508) (assay: hBE equivalent current (Ieq) assay: AUC of equivalent chloride current after forskolin/VX-770 in primary lung epithelial cells homozygous for ΔF508). Details: relative to CFTR amplifier (Compound A)+VX-809 (3 uM), compound at 10 uM and Compound A at 3 uM, 24 h treatment.
T1 construct: Primary lung epithelial cells homozygous for the Cystic Fibrosis-causing ΔF508 mutation were differentiated for a minimum of 4 weeks; endogenous in cells; host or cells: primary lung epithelial cells (hBE) homozygous for ΔF508, differentiated at an air-liquid interface
T1 sequence (P13569 with tags, fused parts or gaps DEL508-508): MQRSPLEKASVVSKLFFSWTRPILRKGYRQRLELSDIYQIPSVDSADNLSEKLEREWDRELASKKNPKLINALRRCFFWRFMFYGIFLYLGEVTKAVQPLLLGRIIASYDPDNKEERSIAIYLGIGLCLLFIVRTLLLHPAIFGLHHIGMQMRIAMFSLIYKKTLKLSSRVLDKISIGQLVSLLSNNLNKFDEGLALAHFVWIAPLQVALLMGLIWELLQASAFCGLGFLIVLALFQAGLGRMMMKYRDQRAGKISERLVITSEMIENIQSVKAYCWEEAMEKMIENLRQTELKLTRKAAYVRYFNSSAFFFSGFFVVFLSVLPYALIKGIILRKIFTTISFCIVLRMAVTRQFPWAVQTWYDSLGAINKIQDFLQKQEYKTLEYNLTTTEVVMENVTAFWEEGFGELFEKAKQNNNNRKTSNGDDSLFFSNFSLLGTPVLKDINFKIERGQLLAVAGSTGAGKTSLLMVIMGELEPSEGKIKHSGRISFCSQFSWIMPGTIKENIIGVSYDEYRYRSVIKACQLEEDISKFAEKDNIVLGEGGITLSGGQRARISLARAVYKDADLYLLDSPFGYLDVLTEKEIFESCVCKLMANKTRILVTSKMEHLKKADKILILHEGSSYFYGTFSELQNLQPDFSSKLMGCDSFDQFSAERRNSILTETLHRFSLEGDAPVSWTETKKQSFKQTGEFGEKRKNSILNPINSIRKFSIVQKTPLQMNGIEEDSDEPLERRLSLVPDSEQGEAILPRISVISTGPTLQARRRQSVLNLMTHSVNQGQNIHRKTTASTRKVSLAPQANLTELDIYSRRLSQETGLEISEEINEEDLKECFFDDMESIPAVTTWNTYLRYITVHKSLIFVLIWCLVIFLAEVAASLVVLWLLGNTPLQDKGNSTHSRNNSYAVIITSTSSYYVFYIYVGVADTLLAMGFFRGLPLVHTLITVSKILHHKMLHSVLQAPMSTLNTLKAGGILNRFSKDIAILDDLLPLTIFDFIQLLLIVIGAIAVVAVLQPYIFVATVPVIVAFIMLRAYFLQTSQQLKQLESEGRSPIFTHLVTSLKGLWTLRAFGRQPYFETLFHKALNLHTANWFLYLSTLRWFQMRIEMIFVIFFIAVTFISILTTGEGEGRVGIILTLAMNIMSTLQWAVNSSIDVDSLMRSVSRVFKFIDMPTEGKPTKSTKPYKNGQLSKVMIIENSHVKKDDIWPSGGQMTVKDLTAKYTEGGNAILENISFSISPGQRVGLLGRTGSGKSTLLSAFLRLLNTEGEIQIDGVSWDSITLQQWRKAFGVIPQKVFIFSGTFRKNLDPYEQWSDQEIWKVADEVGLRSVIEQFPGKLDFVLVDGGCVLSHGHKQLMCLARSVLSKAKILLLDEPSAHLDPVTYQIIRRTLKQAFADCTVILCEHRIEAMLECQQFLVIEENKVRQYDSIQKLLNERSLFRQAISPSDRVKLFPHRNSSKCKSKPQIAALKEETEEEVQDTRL
Type: cell-based
In short: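 ΔF508/ΔF508 primary human bronchial epithelia, differentiated ≥4 weeks at air-liquid interface, treated basolaterally with compound for 24 h at 37 °C. Transepithelial voltage and conductance by 24-channel current clamp at 36 °C: benzamil, then forskolin plus VX-770 for 27 min, then bumetanide; AUC of equivalent chloride current over vehicle.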
Cc1cc(Cl)cc2c(C(=O)O)cc(-c3cc4ccccc4o3)nc12 [Compound 16, 2-(1-Benzofuran-2-yl)-6-chloro-8-methylquinoline-4-carboxylic acid] was tested, and the Activity was “+ (activity<50% of an CFTR amplifier (Compound A)+VX-809 (3 uM) with compound at 10 uM and Compound A at 3 uM)”. For Cc1c(-c2cc(C(=O)[O-])c3c(O[C@H](C)c4ccc(S(C)(=O)=O)cc4)ccc(C)c3n2)oc2ccccc12.[Na+] [Compound 229, Sodium 5-[(1R)-1-(4-methanesulfonylphenyl)ethoxy]-8-methyl-2-(3-methyl-1-benzofuran-2-yl)quinoline-4-carboxylate], the Activity was “++ (activity>50% of CFTR amplifier+VX-809 (3 uM) with compound at 10 uM and Compound A at 3 uM)”. Cc1c(-c2cc(C(=O)[O-])c3c(OCC4CC(C)(C)OC(C)(C)C4)ccc(C)c3n2)sc2ccccc12.[Na+] [Compound 337] was tested, and the Activity was “++ (activity>50% of CFTR amplifier+VX-809 (3 uM) with compound at 10 uM and Compound A at 3 uM)”. In the case of Cc1c(-c2cc(C(=O)[O-])c3c(OCc4cccc(C#N)c4)ccc(C)c3n2)sc2ccccc12.[Na+] [Compound 298, Sodium 5-[(3-Cyanophenyl)methoxy]-8-methyl-2-(3-methyl-1-benzothiophen-2-yl)quinoline-4-carboxylate], the Activity is reported as “++ (activity>50% of CFTR amplifier+VX-809 (3 uM) with compound at 10 uM and Compound A at 3 uM)”. For CCc1cc(C)c2nc(-c3oc4ccccc4c3C)cc(C(=O)O)c2c1 [Compound 26, 6-Ethyl-8-methyl-2-(3-methyl-1-benzofuran-2-yl)quinoline-4-carboxylic Acid], the Activity was “++ (activity>50% of CFTR amplifier+VX-809 (3 uM) with compound at 10 uM and Compound A at 3 uM)”. In the case of Cc1c(-c2cc(C(=O)[O-])c3c(O[C@@H]4C[C@H]5CC[C@@H](C4)O5)ccc(C)c3n2)sc2ccccc12.[Na+] [Compound 352], the Activity is reported as “++ (activity>50% of CFTR amplifier+VX-809 (3 uM) with compound at 10 uM and Compound A at 3 uM)”. In the case of CCc1ccc(OC2CCCCC2)c2c(C(=O)O)cc(-c3sc4ccccc4c3C)nc12 [Compound 135, 5-(Cyclohexyloxy)-8-ethyl-2-(3-methyl-1-benzothiophen-2-yl)quinoline-4-carboxylic acid], the Activity is reported as “++ (activity>50% of CFTR amplifier+VX-809 (3 uM) with compound at 10 uM and Compound A at 3 uM)”. For Cc1c(-c2cc(C(=O)O)c3c(OC(C)c4ccc5nccn5c4)ccc(C)c3n2)oc2ccccc12 (centres unmarked) [Compound 347], the Activity was “+ (activity<50% of an CFTR amplifier (Compound A)+VX-809 (3 uM) with compound at 10 uM and Compound A at 3 uM)”. For Cc1c(-c2cc(C(=O)[O-])c3c(O[C@@H](C)c4ccc(S(N)(=O)=O)cc4)ccc(C)c3n2)oc2ccccc12.[Na+] [Compound 238, Sodium 8-Methyl-2-(3-methyl-1-benzofuran-2-yl)-5-[(1S)-1-(4-sulfamoylphenyl)ethoxy]quinoline-4-carboxylate], the Activity was “++ (activity>50% of CFTR amplifier+VX-809 (3 uM) with compound at 10 uM and Compound A at 3 uM)”. Cc1c(-c2cc(C(=O)[O-])c3c(O[C@H]4CCC[C@@H](C)C4)ccc(C)c3n2)sc2ccccc12.[Na+] [Compound 219, Sodium 8-Methyl-2-(3-methyl-1-benzothiophen-2-yl)-5-[[(1S,3R)-3-methylcyclohexyl]oxy]quinoline-4-carboxylic acid] was tested, and the Activity was “++ (activity>50% of CFTR amplifier+VX-809 (3 uM) with compound at 10 uM and Compound A at 3 uM)”. With Cc1c(-c2cc(C(=O)[O-])c3c(O[C@H](C)C4CCOCC4)ccc(C)c3n2)sc2ccccc12.[Na+] [Compound 330] the Activity was “++ (activity>50% of CFTR amplifier+VX-809 (3 uM) with compound at 10 uM and Compound A at 3 uM)”. CCc1ccc(OCc2ccccc2)c2c(C(=O)O)cc(-c3coc4ccccc34)nc12 [Compound 169, 2-(1-Benzofuran-3-yl)-5-(benzyloxy)-8-ethylquinoline-4-carboxylic acid] was tested, and the Activity was “++ (activity>50% of CFTR amplifier+VX-809 (3 uM) with compound at 10 uM and Compound A at 3 uM)”. For CCc1ccc(OCc2ccccc2)c2c(C(=O)O)cc(-c3c(C)c4ccccc4n3C)nc12 [Compound 147, 5-(Benzyloxy)-2-(1,3-dimethyl-1H-indol-2-yl)-8-ethylquinoline-4-carboxylic acid], the Activity was “+ (activity<50% of an CFTR amplifier (Compound A)+VX-809 (3 uM) with compound at 10 uM and Compound A at 3 uM)”. With Cc1c(-c2cc(C(=O)[O-])c3c(OC4CC(C)C4)ccc(C)c3n2)sc2ccccc12.[Na+] (centres unmarked) [Compound 277, Sodium 8-Methyl-2-(3-methyl-1-benzothiophen-2-yl)-5-(3-methylcyclobutoxy)quinoline-4-carboxylate] the Activity was “++ (activity>50% of CFTR amplifier+VX-809 (3 uM) with compound at 10 uM and Compound A at 3 uM)”. In the case of Cc1c(-c2cc(C(=O)[O-])c3c(O[C@H]4CCc5ccccc5C4)ccc(C)c3n2)oc2ccccc12.[Na+] [Compound 253], the Activity is reported as “++ (activity>50% of CFTR amplifier+VX-809 (3 uM) with compound at 10 uM and Compound A at 3 uM)”. Cc1c(-c2cc(C(=O)[O-])c3c(O[C@@H](CO)c4ccccc4)ccc(C)c3n2)sc2ccccc12.[Na+] [Compound 306] was tested, and the Activity was “++ (activity>50% of CFTR amplifier+VX-809 (3 uM) with compound at 10 uM and Compound A at 3 uM)”. In the case of Cc1ccc(O[C@H](C)c2ccccc2)c2c(C(=O)[O-])cc(-c3cn4ccccc4n3)nc12.[Na+] [Compound 202, Sodium 2-[Imidazo[1,2-a]pyridin-2-yl]-8-methyl-5-[(1R)-1-phenylethoxy]quinoline-4-carboxylate], the Activity is reported as “+ (activity<50% of an CFTR amplifier (Compound A)+VX-809 (3 uM) with compound at 10 uM and Compound A at 3 uM)”. In the case of Cc1c(-c2cc(C(=O)[O-])c3c(O[C@H](C)c4ccc(C#N)cc4)ccc(C)c3n2)oc2ccccc12.[Na+] [Compound 233], the Activity is reported as “++ (activity>50% of CFTR amplifier+VX-809 (3 uM) with compound at 10 uM and Compound A at 3 uM)”. With Cc1c(-c2cc(C(=O)[O-])c3c(OC[C@H]4CC[C@@](C)(O)CC4)ccc(C)c3n2)sc2ccccc12.[Na+] [Compound 322] the Activity was “++ (activity>50% of CFTR amplifier+VX-809 (3 uM) with compound at 10 uM and Compound A at 3 uM)”. Cc1ccc(OC(C)c2ccccc2)c2c(C(=O)[O-])cc(-c3nc4ccccc4n3C)nc12.[Na+] (centres unmarked) [Compound 407] was tested, and the Activity was “+ (activity<50% of an CFTR amplifier (Compound A)+VX-809 (3 uM) with compound at 10 uM and Compound A at 3 uM)”. For Cc1c(-c2cc(C(=O)[O-])c3c(O[C@H](C)c4ccc(S(N)(=O)=O)cc4)ccc(C)c3n2)oc2ccccc12.[Na+] [Compound 237, Sodium 8-Methyl-2-(3-methyl-1-benzofuran-2-yl)-5-[(1R)-1-(4-sulfamoylphenyl)ethoxy]quinoline-4-carboxylate], the Activity was “+ (activity<50% of an CFTR amplifier (Compound A)+VX-809 (3 uM) with compound at 10 uM and Compound A at 3 uM)”. In the case of Cc1c(-c2cc(C(=O)[O-])c3c(O[C@H]4C[C@H](C5CCOCC5)C4)ccc(C)c3n2)oc2ccccc12.[Na+] [Compound 350], the Activity is reported as “++ (activity>50% of CFTR amplifier+VX-809 (3 uM) with compound at 10 uM and Compound A at 3 uM)”. In the case of CNS(=O)(=O)c1ccc([C@H](C)Oc2ccc(C)c3nc(-c4oc5ccccc5c4C)cc(C(=O)[O-])c23)cc1.[Na+] [Compound 240, Sodium 8-Methyl-2-(3-methyl-1-benzofuran-2-yl)-5-[(1S)-1-[4-(methylsulfamoyl)phenyl]ethoxy]quinoline-4-carboxylate], the Activity is reported as “++ (activity>50% of CFTR amplifier+VX-809 (3 uM) with compound at 10 uM and Compound A at 3 uM)”. With Cc1c(-c2cc(C(=O)[O-])c3c(OCc4ccc(F)cc4)ccc(C)c3n2)sc2ccccc12.[Na+] [Compound 291, Sodium 5-[(4-Fluorophenyl)methoxy]-8-methyl-2-(3-methyl-1-benzothiophen-2-yl)quinoline-4-carboxylate] the Activity was “++ (activity>50% of CFTR amplifier+VX-809 (3 uM) with compound at 10 uM and Compound A at 3 uM)”. For Cc1c(-c2cc(C(=O)[O-])c3c(OC(C)c4ccc(C5COC5)cc4)ccc(C)c3n2)sc2ccccc12.[Na+] (centres unmarked) [Compound 373], the Activity was “++ (activity>50% of CFTR amplifier+VX-809 (3 uM) with compound at 10 uM and Compound A at 3 uM)”. For Cc1ccc(C)c2c(C(=O)O)cc(-c3oc4cccc(C)c4c3C)nc12 [Compound 128, 2-(3,4-Dimethyl-1-benzofuran-2-yl)-5,8-dimethylquinoline-4-carboxylic acid], the Activity was “+ (activity<50% of an CFTR amplifier (Compound A)+VX-809 (3 uM) with compound at 10 uM and Compound A at 3 uM)”. Cc1c(-c2cc(-c3noc(O)n3)c3c(OC(C)c4ccccc4)ccc(C)c3n2)oc2ccccc12 (centres unmarked) [Compound 361] was tested, and the Activity was “++ (activity>50% of CFTR amplifier+VX-809 (3 uM) with compound at 10 uM and Compound A at 3 uM)”. Cc1c(-c2cc(C(=O)O)c3c(OC(C)c4ccc(S(N)(=O)=O)cc4)ccc(C)c3n2)oc2ccccc12 (centres unmarked) [Compound 360] was tested, and the Activity was “++ (activity>50% of CFTR amplifier+VX-809 (3 uM) with compound at 10 uM and Compound A at 3 uM)”. Cc1c(-c2cc(C(=O)[O-])c3c(OC4CC(C)(C)C4)ccc(C)c3n2)oc2ccccc12.[Na+] [Compound 368] was tested, and the Activity was “++ (activity>50% of CFTR amplifier+VX-809 (3 uM) with compound at 10 uM and Compound A at 3 uM)”. In the case of Cc1c(-c2cc(C(=O)O)c3c(OC4CC(c5ccccc5)C4)ccc(C)c3n2)oc2ccccc12 (centres unmarked) [Compound 75, 8-Methyl-2-(3-methyl-1-benzofuran-2-yl)-5-(3-phenylcyclobutoxy)quinoline-4-carboxylic acid], the Activity is reported as “++ (activity>50% of CFTR amplifier+VX-809 (3 uM) with compound at 10 uM and Compound A at 3 uM)”. For Cc1c(-c2cc(C(=O)[O-])c3c(OC[C@@H]4C[C@H]5CC[C@@H](C4)O5)ccc(C)c3n2)sc2ccccc12.[Na+] [Compound 358], the Activity was “++ (activity>50% of CFTR amplifier+VX-809 (3 uM) with compound at 10 uM and Compound A at 3 uM)”. Cc1c(-c2cc(C(=O)[O-])c3c(O[C@@H](C)c4ccc(C#N)cc4)ccc(C)c3n2)oc2ccccc12.[Na+] [Compound 234] was tested, and the Activity was “++ (activity>50% of CFTR amplifier+VX-809 (3 uM) with compound at 10 uM and Compound A at 3 uM)”.
